Our source for the GI50 and IC50 values is US20240116921A1, “LACTAM (HETERO)[…] DERIVATIVES AS INHIBITORS OF ERBB2” (EnLiven Therapeutics, Inc., priority 2020, published 2024).

Assay [1] deals with Ba/F3 ERBB2 A775_G776insYVMA (Homo sapiens, UniProt P04626, DUP772-775, cells depend on it). Briefly: Cell viability assay, Ba/F3 ERBB2 A775_G776insYVMA. It counts as cell-based, mouse. The settings on record: Ba/F3 ERBB2 YVMA cells, cell viability, 72 hours, CellTiter Glo; Table B5; read-out: Ba/F3 ERBB2 YVMA, IC50. The method in brief: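 IL-3-independent Ba/F3 lines stably expressing the human ERBB2 insertion mutants were seeded at 3000 cells/well and exposed to compounds for 72 h at 37 °C, 5% CO2. Viability was read as ATP by CellTiter-Glo luminescence. Curves were fitted by sigmoidal nonlinear regression.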
Sequence of Ba/F3 ERBB2 A775_G776insYVMA (P04626 with tags, fused parts or gaps DUP772-775): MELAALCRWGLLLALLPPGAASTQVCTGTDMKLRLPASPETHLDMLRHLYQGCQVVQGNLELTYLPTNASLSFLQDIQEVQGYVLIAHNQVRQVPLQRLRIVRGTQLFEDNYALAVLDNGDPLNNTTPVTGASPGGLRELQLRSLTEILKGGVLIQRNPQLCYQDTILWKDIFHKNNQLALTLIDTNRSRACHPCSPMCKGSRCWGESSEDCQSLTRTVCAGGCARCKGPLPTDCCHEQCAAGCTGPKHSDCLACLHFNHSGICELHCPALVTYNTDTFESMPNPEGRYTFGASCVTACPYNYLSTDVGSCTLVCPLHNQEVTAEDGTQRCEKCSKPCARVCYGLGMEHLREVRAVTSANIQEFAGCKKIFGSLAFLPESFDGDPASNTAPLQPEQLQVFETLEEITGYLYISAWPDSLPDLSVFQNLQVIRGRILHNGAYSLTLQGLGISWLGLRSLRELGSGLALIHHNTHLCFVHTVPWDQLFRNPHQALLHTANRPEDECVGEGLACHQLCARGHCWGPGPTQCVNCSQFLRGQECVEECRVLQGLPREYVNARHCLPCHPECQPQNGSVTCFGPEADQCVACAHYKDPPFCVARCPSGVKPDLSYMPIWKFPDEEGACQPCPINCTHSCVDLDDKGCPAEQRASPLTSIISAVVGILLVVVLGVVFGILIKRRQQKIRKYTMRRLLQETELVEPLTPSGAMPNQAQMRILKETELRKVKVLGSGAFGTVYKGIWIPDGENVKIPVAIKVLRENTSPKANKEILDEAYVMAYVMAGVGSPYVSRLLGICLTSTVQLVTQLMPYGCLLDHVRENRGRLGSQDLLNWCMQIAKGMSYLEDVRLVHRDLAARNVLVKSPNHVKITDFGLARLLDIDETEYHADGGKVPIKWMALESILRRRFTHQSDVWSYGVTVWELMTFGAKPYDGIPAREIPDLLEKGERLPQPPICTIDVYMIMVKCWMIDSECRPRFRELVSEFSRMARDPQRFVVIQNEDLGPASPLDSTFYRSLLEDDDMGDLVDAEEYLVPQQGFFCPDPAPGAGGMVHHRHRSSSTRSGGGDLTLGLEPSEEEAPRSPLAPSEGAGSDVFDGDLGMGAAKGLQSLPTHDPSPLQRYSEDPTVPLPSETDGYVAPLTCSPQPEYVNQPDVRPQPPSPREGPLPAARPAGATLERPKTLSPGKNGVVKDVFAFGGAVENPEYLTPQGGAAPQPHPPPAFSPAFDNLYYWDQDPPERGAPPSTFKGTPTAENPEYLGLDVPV
In general terms: ATP-based viability assays read luminescence as a measure of living cells.

Assay [2] concerns the target T1, phosphorylated ERBB2 (pERBB2) (Homo sapiens, UniProt P04626).
T1 construct: endogenous in cells; host or cells: BT-474
Briefly: Detection of phosphorylated ERBB2 (pERBB2) by ELISA in BT-474 cells. It counts as cell-based. The settings on record: four hours incubation. The essentials: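 BT-474 cells (2.0×10^4/well) treated 4 h at 37 °C, 5% CO2 with compounds in four-fold dilutions from 10 µM to 0.01 nM. Lysate pERBB2 measured by ELISA with TMB read at 450 nm; % relative activity scaled between no-cell wells and 0.1% DMSO-treated cells.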
(In general: ELISA stands for enzyme-linked immunosorbent assay.)

In assay [3] the target is T2, phosphorylated EGFR (pEGFR) (Homo sapiens, UniProt P00533).
T2 construct: performed to measure phosphorylated EGFR levels using A431 cells (10% FBS); endogenous in cells; host or cells: A431
T2 sequence (P00533 25-1210): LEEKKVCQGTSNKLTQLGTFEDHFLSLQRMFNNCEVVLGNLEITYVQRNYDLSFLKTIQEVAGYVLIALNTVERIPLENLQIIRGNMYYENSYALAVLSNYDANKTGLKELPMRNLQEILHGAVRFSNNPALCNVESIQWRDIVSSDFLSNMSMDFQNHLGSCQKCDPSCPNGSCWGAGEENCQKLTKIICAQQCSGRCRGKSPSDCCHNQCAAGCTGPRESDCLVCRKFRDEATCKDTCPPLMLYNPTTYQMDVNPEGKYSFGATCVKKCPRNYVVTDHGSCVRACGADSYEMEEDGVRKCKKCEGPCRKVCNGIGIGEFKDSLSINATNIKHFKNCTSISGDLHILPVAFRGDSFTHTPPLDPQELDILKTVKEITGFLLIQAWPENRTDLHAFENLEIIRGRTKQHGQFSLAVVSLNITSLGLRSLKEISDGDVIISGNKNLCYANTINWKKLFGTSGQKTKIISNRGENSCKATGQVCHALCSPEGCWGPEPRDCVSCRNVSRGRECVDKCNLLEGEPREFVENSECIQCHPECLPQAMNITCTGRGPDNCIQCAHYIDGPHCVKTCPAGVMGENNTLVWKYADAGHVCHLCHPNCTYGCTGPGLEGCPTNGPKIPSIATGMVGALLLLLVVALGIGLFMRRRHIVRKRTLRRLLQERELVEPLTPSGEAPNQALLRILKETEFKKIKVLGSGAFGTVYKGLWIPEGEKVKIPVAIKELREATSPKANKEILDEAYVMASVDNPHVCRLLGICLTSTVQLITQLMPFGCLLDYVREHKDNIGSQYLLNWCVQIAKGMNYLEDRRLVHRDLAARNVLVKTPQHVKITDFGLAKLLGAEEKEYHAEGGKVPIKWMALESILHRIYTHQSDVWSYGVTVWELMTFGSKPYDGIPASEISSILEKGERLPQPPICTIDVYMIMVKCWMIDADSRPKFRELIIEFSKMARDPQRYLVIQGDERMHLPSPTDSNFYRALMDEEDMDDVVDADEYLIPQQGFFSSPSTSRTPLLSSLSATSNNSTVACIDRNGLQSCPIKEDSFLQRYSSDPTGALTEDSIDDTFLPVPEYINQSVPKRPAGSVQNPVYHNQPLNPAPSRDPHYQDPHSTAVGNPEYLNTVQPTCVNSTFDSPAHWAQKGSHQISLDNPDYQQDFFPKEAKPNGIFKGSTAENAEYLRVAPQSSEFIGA
Description: Detection of phosphorylated EGFR (pEGFR) in EGF-stimulated A431 cells. It is filed as cell-based. The following applies: A431 cells (10% FBS), 4 hours incubation, EGF 30 ng/mL 10 minutes, AlphaLISA. The essentials: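 A431 cells in 10% FBS were preincubated with compound for 4 h at 37 °C, then stimulated with EGF (30 ng/mL final) for 10 min. pEGFR in lysates was read by AlphaLISA. % inhibition was calculated against DMSO and staurosporine-treated controls, and IC50 came from a four-parameter curve fit.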
(Bead proximity is the source of the signal in Alpha formats.)

T1 sequence (P04626 23-1255): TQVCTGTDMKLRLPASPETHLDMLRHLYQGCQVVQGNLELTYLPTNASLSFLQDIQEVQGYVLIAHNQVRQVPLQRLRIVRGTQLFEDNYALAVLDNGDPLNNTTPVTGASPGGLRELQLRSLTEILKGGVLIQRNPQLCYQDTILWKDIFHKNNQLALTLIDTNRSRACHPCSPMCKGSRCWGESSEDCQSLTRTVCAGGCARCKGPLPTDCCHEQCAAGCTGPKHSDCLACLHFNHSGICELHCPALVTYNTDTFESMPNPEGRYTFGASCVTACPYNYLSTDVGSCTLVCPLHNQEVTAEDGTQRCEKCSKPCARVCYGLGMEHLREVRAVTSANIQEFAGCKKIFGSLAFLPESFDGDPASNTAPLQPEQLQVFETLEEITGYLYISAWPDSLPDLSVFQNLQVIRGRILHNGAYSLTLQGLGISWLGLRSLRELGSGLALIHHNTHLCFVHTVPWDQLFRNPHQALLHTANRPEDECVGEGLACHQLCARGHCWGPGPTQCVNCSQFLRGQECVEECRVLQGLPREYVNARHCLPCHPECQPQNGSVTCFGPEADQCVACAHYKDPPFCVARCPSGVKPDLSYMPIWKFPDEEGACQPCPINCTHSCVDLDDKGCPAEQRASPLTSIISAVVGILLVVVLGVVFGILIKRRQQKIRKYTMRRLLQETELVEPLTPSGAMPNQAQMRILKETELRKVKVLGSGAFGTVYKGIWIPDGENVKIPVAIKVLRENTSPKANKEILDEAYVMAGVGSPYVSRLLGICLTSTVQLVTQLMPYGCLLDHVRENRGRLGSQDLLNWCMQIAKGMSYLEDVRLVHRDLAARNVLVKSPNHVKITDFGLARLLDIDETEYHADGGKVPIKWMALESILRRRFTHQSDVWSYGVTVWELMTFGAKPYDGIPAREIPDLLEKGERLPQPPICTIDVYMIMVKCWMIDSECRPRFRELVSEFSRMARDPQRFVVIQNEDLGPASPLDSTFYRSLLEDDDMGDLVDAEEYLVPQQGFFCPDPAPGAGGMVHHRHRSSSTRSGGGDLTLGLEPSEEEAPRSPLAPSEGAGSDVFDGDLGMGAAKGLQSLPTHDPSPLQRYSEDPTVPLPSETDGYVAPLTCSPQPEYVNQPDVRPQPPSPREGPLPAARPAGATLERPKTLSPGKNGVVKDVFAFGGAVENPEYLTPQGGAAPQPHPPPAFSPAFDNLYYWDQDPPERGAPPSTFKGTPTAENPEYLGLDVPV

As for `Cc1cc(Nc2ncnc3ccc(N4CC/C(=C\[C@@H](C)N(C)C)C4=O)nc23)ccc1Oc1ccn2ncnc2c1` [Compound 114, (R,E)-1-(4-((4-([1,2,4]triazolo[1,5-a]pyridin-7-yloxy)-3-methylphenyl)amino)pyrido[3,2-d]pyrimidin-6-yl)-3-(2-(dimethylamino)propylidene)pyrrolidin-2-one], the GI50 in assay [1] is 24.3 nM. The IC50 is 31.1 nM in assay [2] and above 10000 nM in assay [3].

With `Cc1cc(Nc2ncnc3ccc(N4CC/C(=C\C5CN(C)C5)C4=O)nc23)ccc1Oc1ccn2ncnc2c1` [Compound 139, (3E)-1-{4-[(3-methyl-4-{[1,2,4]triazolo[1,5-a]pyridin-7-yloxy}phenyl)amino]pyrido[3,2-d]pyrimidin-6-yl}-3-[(1-methylazetidin-3-yl)methylidene]pyrrolidin-2-one], the GI50 in assay [1] was found to be 15.7 nM. Also, the IC50 in assay [2] is 14.3 nM; in assay [3] it was above 10000 nM.

Take `C=C1C(=O)N(c2cc3c(Nc4ccc(Oc5ccn6ncnc6c5)c(C)c4)ncnc3cn2)C[C@@H]1C` [Compound 31]: in assay [1], the GI50 came out at 3.78 nM. The figures for the half-maximal inhibitory concentration (IC50) in assay [2] and in assay [3] were 15.9 nM and 117 nM, respectively.

As to `C=C1C(=O)N(c2ccc3ncnc(Nc4ccc(Oc5ccn6ncnc6c5)c(C)c4)c3c2)CC1CN(C)C` (stereo not drawn) [Compound 30, 4-[(dimethylamino)methyl]-1-{4-[(3-methyl-4-{[1,2,4]triazolo [1,5-a]pyridin-7-yloxy}phenyl)amino]quinazolin-6-yl}-3-methylidenepyrrolidin-2-one; formic acid], the GI50 in assay [1] is 17.4 nM. Further, the values for the 50% inhibitory concentration (IC50) in assay [2] and in assay [3] were 12.3 nM and 68.4 nM, respectively.

As to `CN(C)C/C=C1\CCN(c2cc3c(Nc4cc(F)c(Oc5ccn6ncnc6c5)cc4F)ncnc3cn2)C1=O` [Compound 140, (3E)-1-{4-[(2,5-difluoro-4-{[1,2,4]triazolo[1,5-a]pyridin-7-yloxy}phenyl)amino]pyrido[3,4-d]pyrimidin-6-yl}-3-[2-(dimethylamino)ethylidene]pyrrolidin-2-one], the GI50 in assay [1] is 78.1 nM. For the same compound, the IC50 was 20.5 nM in assay [2] and above 10000 nM in assay [3].

With `C=C1CCN(c2cc3c(Nc4ccc(Oc5ccn6ncnc6c5)c(Cl)c4)ncnc3cc2OCCN(C)C)C1=O` [Compound 25, 1-{4-[(3-chloro-4-{[1,2,4]triazolo[1,5-a]pyridin-7-yloxy}phenyl)amino]-7-[2-(dimethylamino)ethoxy]quinazolin-6-yl}-3-methylidenepyrrolidin-2-one], the GI50 in assay [1] is above 500 nM. Also, the half-inhibitory concentration (IC50) in assay [2] was 1190 nM; in assay [3], above 10000 nM.

Consider `Cc1cc(Nc2ncnc3ccc(N4CC/C(=C\CCN5CCN(C)CC5)C4=O)cc23)ccc1Oc1ccn2ncnc2c1` [Compound 40, (3E)-1-{4-[(3-methyl-4-{[1,2,4]triazolo[1,5-a]pyridin-7-yloxy}phenyl)amino]quinazolin-6-yl}-3-[3-(4-methylpiperazin-1-yl)propylidene]pyrrolidin-2-one], for which the GI50 in assay [1] was above 500 nM. Further, the IC50 was 30.7 nM in assay [2] and above 10000 nM in assay [3].

Regarding `Cc1cc(Nc2ncnc3ccc(N4CC/C(=C\CN(C)C)C4=O)nc23)ccc1Oc1ccc2ocnc2c1` [Compound 66, (E)-1-(4-((4-(benzo[d]oxazol-5-yloxy)-3-methylphenyl)amino)pyrido[3,2-d]pyrimidin-6-yl)-3-(2-(dimethylamino)ethylidene)pyrrolidin-2-one], the GI50 in assay [1] is 1.95 nM. For the same compound, the IC50 in assay [2] came to 34.2 nM; in assay [3], 93.6 nM.

Regarding `C=C1CCCN(c2ccc3ncnc(Nc4ccc(Oc5ccc6c(c5)ncn6C)c(C)c4)c3n2)C1=O` [Compound 96, 1-[4-({3-methyl-4-[(1-methyl-1,3-benzodiazol-5-yl)oxy]phenyl}amino)pyrido[3,2-d]pyrimidin-6-yl]-3-methylidenepiperidin-2-one], the GI50 in assay [1] amounted to 18.6 nM. Also, the IC50 in assay [2] stood at 22.8 nM; in assay [3] it was 794 nM.

With `C=C1CCN(c2ccc3ncnc(Nc4ccc(Oc5ccc6nccnc6c5)c(C)c4)c3c2)C1=O` [Compound 46, 1-(4-((3-methyl-4-(quinoxalin-6-yloxy)phenyl)amino)quinazolin-6-yl)-3-methylenepyrrolidin-2-one], the GI50 in assay [1] came out at 53.9 nM. For the same compound, the IC50 in assay [2] came out at 65.1 nM; in assay [3], 759 nM.

`Cc1cc(Nc2ncnc3ccc(N4CC/C(=C\CN(C)C)C4=O)nc23)ccc1Oc1ccn(C(F)F)c(=O)c1` [Compound 55, 1-(difluoromethyl)-4-[4-({6-[(3E)-3-[2-(dimethylamino)ethylidene]-2-oxopyrrolidin-1-yl]pyrido[3,2-d]pyrimidin-4-yl}amino)-2-methylphenoxy]pyridin-2-one]: the GI50 in assay [1] came to 23 nM. Moreover, the concentration for half-maximal inhibition (IC50) came out at 23.1 nM in assay [2] and 250 nM in assay [3].

Take `CN(C)C/C=C1\CCN(c2cc3c(Nc4cc(Cl)c(Oc5ccn6ncnc6c5)cc4F)ncnc3cn2)C1=O` [Compound 133, (E)-1-(4-((4-([1,2,4]triazolo[1,5-a]pyridin-7-yloxy)-5-chloro-2-fluorophenyl)amino)pyrido[3,4-d]pyrimidin-6-yl)-3-(2-(dimethylamino)ethylidene)pyrrolidin-2-one]: in assay [1], the GI50 is 16.9 nM. Also, the half-inhibitory concentration (IC50) was 10.9 nM in assay [2] and 1140 nM in assay [3].

Take `Cc1cc(Nc2ncnc3cnc(N4CC(C)C(=CCN(C)C)C4=O)cc23)ccc1Oc1ccc2c(c1)ncn2C` (single isomer, unassigned) [Example S97, Enantiomer #1, 3-[2-(dimethylamino)ethylidene]-4-methyl-1-[4-({3-methyl-4-[(1-methyl-1,3-benzodiazol-5-yl)oxy]phenyl}amino)pyrido[3,4-d]pyrimidin-6-yl]pyrrolidin-2-one]: in assay [1], the GI50 came out at 45.6 nM. The 50% inhibitory concentration (IC50) was 41.3 nM in assay [2] and above 10000 nM in assay [3].

As to `Cc1cc(Nc2ncnc3cnc(N4CC/C(=C\CN(C)C)C4=O)cc23)ccc1Oc1ccc2c(c1)ncn2C` [Compound 45, (E)-3-(2-(dimethylamino)ethylidene)-1-(4-((3-methyl-4-((1-methyl-1H-benzo[d]imidazol-5-yl)oxy)phenyl)amino)pyrido[3,4-d]pyrimidin-6-yl)pyrrolidin-2-one], in assay [1], the GI50 was found to be 1.79 nM. In addition, the concentration for half-maximal inhibition (IC50) stood at 22.6 nM in assay [2] and 670 nM in assay [3].

Consider `CC1CN(c2ccc3ncnc(Nc4ccc(Oc5ccn6ncnc6c5)c(F)c4)c3n2)C(=O)/C1=C/CN(C)C` (single isomer, unassigned) [Example S127, Enantiomer #1, (E)-1-(4-((4-([1,2,4]triazolo[1,5-a]pyridin-7-yloxy)-3-fluorophenyl)amino)pyrido[3,2-d]pyrimidin-6-yl)-3-(2-(dimethylamino)ethylidene)-4-methylpyrrolidin-2-one], for which, in assay [1], the GI50 was 2.88 nM. Moreover, the figures for the IC50 in assay [2] and in assay [3] were 14 nM and 575 nM, respectively.

Turning to `Cc1cc(Nc2ncnc3ccc(N4CC/C(=C\CN(C)C)C4=O)nc23)ccc1Oc1ccc2[nH]cnc2c1` [Compound 118, (3E)-1-(4-{[4-(1H-1,3-benzodiazol-5-yloxy)-3-methylphenyl]amino}pyrido[3,2-d]pyrimidin-6-yl)-3-[2-(dimethylamino)ethylidene]pyrrolidin-2-one], the GI50 in assay [1] was 1.55 nM. The IC50 in assay [2] was 10.3 nM; in assay [3] it was 177 nM.

Take `C=C1C(=O)N(c2ccc3ncnc(Nc4ccc(Oc5ccc6c(c5)ncn6C)c(C)c4)c3c2)C2CC12` (single isomer, unassigned) [Example S33, Enantiomer # 1, 2-[4-({3-methyl-4-[(1-methyl-1,3-benzodiazol-5-yl)oxy]phenyl}amino)quinazolin-6-yl]-4-methylidene-2-azabicyclo[3.1.0]hexan-3-one]: the GI50 in assay [1] is 7.57 nM. Moreover, the figures for the half-maximal inhibitory concentration (IC50) in assay [2] and in assay [3] were 23.2 nM and 1090 nM, respectively.

For `Cc1cc(Nc2ncnc3ccc(N4CC/C(=C\CN(C)C)C4=O)nc23)ccc1Oc1ccc2c(c1)ncn2C` [Compound 38, (3E)-3-[2-(dimethylamino)ethylidene]-1-[4-({3-methyl-4-[(1-methyl-1,3-benzodiazol-5-yl)oxy]phenyl}amino)pyrido[3,2-d]pyrimidin-6-yl]pyrrolidin-2-one], the GI50 in assay [1] was found to be 2 nM. Also, the results for the 50% inhibitory concentration (IC50) in assay [2] and in assay [3] were 29.3 nM and 407 nM, respectively.

Regarding `Cc1cc(Nc2ncnc3ccc(N4CC/C(=C\[C@H](C)N(C)C)C4=O)nc23)ccc1Oc1ccn2ncnc2c1` [Compound 113, (S,E)-1-(4-((4-([1,2,4]triazolo[1,5-a]pyridin-7-yloxy)-3-methylphenyl)amino)pyrido[3,2-d]pyrimidin-6-yl)-3-(2-(dimethylamino)propylidene)pyrrolidin-2-one], the GI50 in assay [1] was above 500 nM. Also, the IC50 in assay [2] was 327 nM; in assay [3], above 10000 nM.

As a reminder, the IC50 is the concentration needed to halve the response being measured.
